Entries after “also recorded” stand apart in the source; their conditions may differ.
Columns and labels:
[1] = biological target: Opiate μ (OP3, MOP) (Homo sapiens, UniProt P35372); assay: Eurofins radioligand binding
[2] = biological target: CYP 2C9 (Homo sapiens, UniProt P11712); assay: CYP450 inhibition; assay type: in vitro ADME
[3] = biological target: Sigma σ1 (Homo sapiens, UniProt Q99720); assay: Eurofins radioligand binding
[4] = biological target: Glucocorticoid (Homo sapiens, UniProt P04150); assay: Eurofins radioligand binding
[5] = system: CYP450; assay: time-dependent CYP450 inhibition; assay type: in vitro ADME; settings: result in words
[6] = biological target: CYP 2C8 (Homo sapiens, UniProt P10632); assay: CYP450 inhibition; assay type: in vitro ADME
[7] = biological target: Bradykinin B2 (Homo sapiens, UniProt P30411); assay: Eurofins radioligand binding
[8] = IV/PO pharmacokinetics (NHP); assay type: in vivo; settings: NHP (cyno)
[9] = system: Rolipram; assay: Eurofins radioligand binding; settings: Rat
[10] = biological target: Adrenergic α1D (Homo sapiens, UniProt P25100); assay: Eurofins radioligand binding
[11] = brain to plasma ratio (rat); assay type: in vivo
Description: covered in Principles of Laboratory Animal Care (National Institutes of Health). All rats were fasted overnight prior to testing.
For determination of the brain over plasma ratio (Kp), compounds were formulated in 8% ethanol, 32% PEG400 and 60% DMSO (v/v/v) and administered as a single 0.2 mg/kg IV dose (1 mL/kg) to male, Sprague Dawley rats (n = 1) via injection into a surgically-implanted jugular vein catheter. At 15 min post dosing, blood sample was collected into chilled, K2EDTA anticoagulant-fortified tube and immediately placed on wet ice. The blood sample was then centrifuged (1700 rcf, 5 minutes, 4 °C) to obtain plasma sample. At the same post-administration time point, whole brain sample was obtained by rapid dissection, rinsed with PBS, and immediately frozen in individual tissue collection box (dry ice). All brain and plasma samples were stored at -80 °C until […]
Sample Analysis: Concentrations in plasma and brain homogenates were quantified by liquid chromatography tandem mass spectrometry (LC-MS/MS). Whole brains were homogenized in 3 mL of 70:30 IPA:water in a mini bead beater for 3 min, and centrifuged at 3,500 g for 5 min. 5 uL of the supernatant was diluted in 15 uL of blank plasma for quantification of the analytes. Plasma samples were centrifuged at 3,500 g for 5 min. […]
Plasma and brain tissue samples originating from in vivo studies were analyzed by electrospray ionization using an AB Sciex Q-TRAP 5500 (Foster City, CA) that was coupled to a Shimadzu LC-20AD pump (Columbia, MD) and a Leap Technologies CTC PAL auto-sampler (Carrboro, NC). […]
min, with an isocratic hold for 0.5 min, before transitioning to 10% B over 0.05 min. […] All data were analyzed using AB Sciex Analyst 1.5.1 software.
Brain plasma concentration ratio (Kp) was calculated by dividing brain concentration by plasma concentration for each animal. Unbound brain to unbound plasma concentration ratio (Kp,uu) is calculated using the following formula: Kp,uu = (Brain ng/g x brain fu)/(plasma ng/ml x plasma fu). […]

[12] = system: 1A2; assay: CYP450 induction in human hepatocytes (three donors); assay type: cell-based; settings: 10 μM, human hepatocytes from three donors
[13] = system: 4 strain; assay: AMES assay (4 strain, with and without S9); assay type: cell-based
[14] = biological target: Adrenergic α1B (Homo sapiens, UniProt P35368); assay: Eurofins radioligand binding
[15] = cynomolgus monkey, plasma, 3 mg/kg po

Chain of Sigma σ1 (Q99720 whole entry): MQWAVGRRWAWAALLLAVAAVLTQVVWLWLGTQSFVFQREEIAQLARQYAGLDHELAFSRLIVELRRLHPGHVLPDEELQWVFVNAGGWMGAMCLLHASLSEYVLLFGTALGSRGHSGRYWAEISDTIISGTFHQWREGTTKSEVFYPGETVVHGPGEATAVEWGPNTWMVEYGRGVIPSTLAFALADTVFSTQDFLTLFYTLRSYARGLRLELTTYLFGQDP
Chain of Bradykinin B2 (P30411 whole entry): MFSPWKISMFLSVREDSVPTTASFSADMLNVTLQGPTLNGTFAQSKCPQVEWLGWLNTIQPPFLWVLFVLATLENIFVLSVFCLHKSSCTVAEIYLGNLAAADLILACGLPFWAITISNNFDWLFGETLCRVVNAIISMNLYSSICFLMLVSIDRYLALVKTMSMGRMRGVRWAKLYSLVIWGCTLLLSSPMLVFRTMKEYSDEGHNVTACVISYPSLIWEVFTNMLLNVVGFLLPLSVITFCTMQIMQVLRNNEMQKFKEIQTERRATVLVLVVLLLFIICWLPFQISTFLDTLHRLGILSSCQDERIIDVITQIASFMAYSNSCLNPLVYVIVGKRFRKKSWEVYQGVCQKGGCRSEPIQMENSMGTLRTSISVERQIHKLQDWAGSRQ
Chain of Opiate μ (OP3, MOP) (P35372 whole entry): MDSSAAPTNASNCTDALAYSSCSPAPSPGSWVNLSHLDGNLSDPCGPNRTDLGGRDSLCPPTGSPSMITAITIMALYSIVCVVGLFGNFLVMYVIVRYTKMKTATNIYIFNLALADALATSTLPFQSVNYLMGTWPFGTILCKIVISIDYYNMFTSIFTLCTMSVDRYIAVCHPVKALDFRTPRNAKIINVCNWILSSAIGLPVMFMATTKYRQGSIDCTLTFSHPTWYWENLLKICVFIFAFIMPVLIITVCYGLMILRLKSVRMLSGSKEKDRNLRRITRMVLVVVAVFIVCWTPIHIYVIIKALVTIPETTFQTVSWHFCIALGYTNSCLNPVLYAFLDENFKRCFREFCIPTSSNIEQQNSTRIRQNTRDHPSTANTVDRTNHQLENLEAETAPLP
Chain of CYP 2C8 (P10632 whole entry): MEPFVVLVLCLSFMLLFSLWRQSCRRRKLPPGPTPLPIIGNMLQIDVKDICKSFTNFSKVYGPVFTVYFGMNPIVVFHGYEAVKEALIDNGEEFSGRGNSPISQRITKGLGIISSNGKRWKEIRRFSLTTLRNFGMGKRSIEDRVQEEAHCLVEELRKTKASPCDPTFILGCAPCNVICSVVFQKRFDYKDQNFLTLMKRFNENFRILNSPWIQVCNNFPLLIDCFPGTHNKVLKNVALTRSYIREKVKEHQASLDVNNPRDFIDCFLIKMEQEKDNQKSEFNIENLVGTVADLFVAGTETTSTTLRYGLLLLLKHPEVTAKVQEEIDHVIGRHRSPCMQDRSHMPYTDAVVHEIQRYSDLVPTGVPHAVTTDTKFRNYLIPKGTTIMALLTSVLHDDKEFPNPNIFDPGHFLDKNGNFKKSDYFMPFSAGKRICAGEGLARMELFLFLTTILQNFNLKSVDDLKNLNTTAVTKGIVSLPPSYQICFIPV
Chain of CYP 2C9 (P11712 whole entry): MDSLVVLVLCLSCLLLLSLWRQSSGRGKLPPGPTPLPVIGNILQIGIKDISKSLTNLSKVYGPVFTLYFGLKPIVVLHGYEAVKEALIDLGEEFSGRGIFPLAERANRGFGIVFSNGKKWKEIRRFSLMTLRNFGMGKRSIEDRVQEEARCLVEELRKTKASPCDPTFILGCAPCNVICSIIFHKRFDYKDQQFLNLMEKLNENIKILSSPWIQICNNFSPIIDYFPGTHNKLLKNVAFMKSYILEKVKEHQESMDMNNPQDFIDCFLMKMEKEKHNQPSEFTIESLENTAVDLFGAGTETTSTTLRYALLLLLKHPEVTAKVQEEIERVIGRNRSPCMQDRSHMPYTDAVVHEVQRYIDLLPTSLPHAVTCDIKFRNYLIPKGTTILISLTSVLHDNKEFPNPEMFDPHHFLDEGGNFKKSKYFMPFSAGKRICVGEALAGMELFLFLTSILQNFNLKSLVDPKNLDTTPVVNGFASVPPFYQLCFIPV
Chain of Adrenergic α1B (P35368 whole entry): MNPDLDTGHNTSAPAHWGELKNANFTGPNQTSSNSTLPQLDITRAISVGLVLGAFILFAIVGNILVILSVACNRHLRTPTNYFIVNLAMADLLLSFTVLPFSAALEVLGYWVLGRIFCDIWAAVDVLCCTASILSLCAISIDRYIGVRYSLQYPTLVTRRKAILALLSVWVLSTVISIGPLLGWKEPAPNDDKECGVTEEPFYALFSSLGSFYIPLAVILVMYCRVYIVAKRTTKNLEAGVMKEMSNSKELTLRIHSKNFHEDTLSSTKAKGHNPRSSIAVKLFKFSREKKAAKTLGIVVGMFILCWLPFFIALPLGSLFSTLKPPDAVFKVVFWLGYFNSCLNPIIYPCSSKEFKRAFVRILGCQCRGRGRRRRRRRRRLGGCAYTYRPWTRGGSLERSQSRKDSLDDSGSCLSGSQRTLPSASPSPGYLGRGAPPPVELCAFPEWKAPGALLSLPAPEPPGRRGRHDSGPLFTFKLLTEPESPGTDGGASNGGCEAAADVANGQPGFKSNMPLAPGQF
Chain of Glucocorticoid (P04150 whole entry): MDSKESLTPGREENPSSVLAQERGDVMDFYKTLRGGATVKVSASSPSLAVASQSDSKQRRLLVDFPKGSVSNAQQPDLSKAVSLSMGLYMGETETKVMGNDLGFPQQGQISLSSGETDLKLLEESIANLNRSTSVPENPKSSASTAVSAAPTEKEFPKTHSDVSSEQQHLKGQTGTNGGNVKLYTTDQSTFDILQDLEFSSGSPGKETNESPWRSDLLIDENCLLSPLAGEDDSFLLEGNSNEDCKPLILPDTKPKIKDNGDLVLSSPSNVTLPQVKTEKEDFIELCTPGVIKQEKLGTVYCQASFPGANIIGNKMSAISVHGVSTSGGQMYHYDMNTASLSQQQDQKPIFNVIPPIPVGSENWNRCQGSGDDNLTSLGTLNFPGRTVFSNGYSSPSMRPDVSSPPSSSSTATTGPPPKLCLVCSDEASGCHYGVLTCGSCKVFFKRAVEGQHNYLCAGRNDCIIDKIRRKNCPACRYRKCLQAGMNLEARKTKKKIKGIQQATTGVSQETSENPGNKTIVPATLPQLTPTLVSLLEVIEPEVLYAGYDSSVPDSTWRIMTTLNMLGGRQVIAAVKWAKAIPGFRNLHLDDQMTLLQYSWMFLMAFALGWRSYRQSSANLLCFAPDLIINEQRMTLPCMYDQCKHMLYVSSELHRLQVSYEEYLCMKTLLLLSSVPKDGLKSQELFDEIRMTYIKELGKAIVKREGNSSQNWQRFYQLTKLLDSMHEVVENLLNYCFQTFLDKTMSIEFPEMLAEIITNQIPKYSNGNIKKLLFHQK
Chain of Adrenergic α1D (P25100 whole entry): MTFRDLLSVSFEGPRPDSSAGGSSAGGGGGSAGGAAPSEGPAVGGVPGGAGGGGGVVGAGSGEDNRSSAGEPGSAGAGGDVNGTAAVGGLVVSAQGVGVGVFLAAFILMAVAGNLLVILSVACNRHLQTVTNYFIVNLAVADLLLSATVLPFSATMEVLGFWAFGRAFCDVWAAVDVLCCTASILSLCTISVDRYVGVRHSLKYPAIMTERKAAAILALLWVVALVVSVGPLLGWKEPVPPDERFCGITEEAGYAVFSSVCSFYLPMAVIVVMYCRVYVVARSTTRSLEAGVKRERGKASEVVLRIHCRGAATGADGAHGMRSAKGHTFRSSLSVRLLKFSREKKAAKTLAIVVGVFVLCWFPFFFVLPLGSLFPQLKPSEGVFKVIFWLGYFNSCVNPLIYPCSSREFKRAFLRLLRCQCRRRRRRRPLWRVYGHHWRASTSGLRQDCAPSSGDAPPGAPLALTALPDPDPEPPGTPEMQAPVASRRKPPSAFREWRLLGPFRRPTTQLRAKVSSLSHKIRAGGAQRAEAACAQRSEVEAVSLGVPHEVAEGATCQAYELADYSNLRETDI

`Cn1cc2c(-c3cc(F)c(CN4Cc5ncccc5C4=O)c(F)c3)ccc(C(C)(C)O)c2n1` [compound 7] showed an inhibition at 10 µM [1] of 2%, an IC50 [2] of over 30 µM and an inhibition at 10 µM [3] of 6%. The inhibition at 10 µM [4] was 9%, the “time-dependent CYP450 inhibition” value [5] was “no evidence of time-dependent inhibition; also recorded: no CYP450 inhibition or time-dependent CYP450 inhibition liabilities” and the IC50 [6] was over 30 µM. For the same compound, the inhibition at 10 µM [7] was -18%, the “F (%) po” value ([8]; 3 mg/kg po) was 76% and the clearance ([8]; cynomolgus monkey, plasma, 1 mg/kg iv, read-out: CLp) was 7.3 mL/min/kg. It also gave a half-life ([8]; cynomolgus monkey, plasma, 1 mg/kg iv, read-out: Elimination t1/2 (converted)) of 4.9 h, a Vd ([8]; cynomolgus monkey, plasma, 1 mg/kg iv, read-out: Vss) of 1.5 L/kg and an AUC [8, 15] of 12.4 µM·h. The Cmax [8, 15] was 1100 nM, the Tmax [8, 15] was 4.7 h and the “% Inhibition at 10 µM” value [9] was 61%. It also gave an inhibition at 10 µM [10] of 11%, a Kp ([11]; brain:plasma) of 1.08 and a Kp at 15 min ([11]; male, Sprague Dawley, brain and plasma, intravenous, 0.2 mg/kg, brain:plasma) of 1.07. The Kp uu at 15 min ([11]; male, Sprague Dawley, brain and plasma, intravenous, 0.2 mg/kg, unbound brain:unbound plasma) was 1.27, the 1A2 induction [12] was 4.9% and the AMES assay result [13] was “negative”. It also gave an inhibition at 10 µM [14] of 8%.

— paper PMC12715762, “Discovery of VU6052254: A Novel, Potent M1 Positive Allosteric Modulator” (ACS Chemical Neuroscience, 2025)
